According to the NIST ThermoML archive (doi:10.1021/je050414d):
± gives the expanded uncertainty stated by the source.

Assay: xn = mol fraction of the nth substance listed
Settings: 101 kPa, Liquid; for viscosity: Capillary tube (Ostwald / Ubbelohde) method

CCOC(=O)OCC [diethyl carbonate] + Cc1ccccc1
viscosity (333.15 K, x1 = 0.1014): 0.394 ± 0.007 mPa·s | viscosity (333.15 K, x1 = 0.1984): 0.403 ± 0.007 mPa·s | viscosity (333.15 K, x1 = 0.3006): 0.413 ± 0.007 mPa·s | viscosity (333.15 K, x1 = 0.4024): 0.422 ± 0.007 mPa·s | viscosity (333.15 K, x1 = 0.5212): 0.434 ± 0.007 mPa·s | viscosity (333.15 K, x1 = 0.6022): 0.442 ± 0.007 mPa·s | viscosity (333.15 K, x1 = 0.7016): 0.452 ± 0.007 mPa·s | viscosity (333.15 K, x1 = 0.7995): 0.461 ± 0.007 mPa·s | viscosity (333.15 K, x1 = 0.8975): 0.471 ± 0.007 mPa·s | viscosity (333.15 K, x1 = 1): 0.483 ± 0.007 mPa·s | mass density (333.15 K, x1 = 0.1014): 841.39 ± 2.2 kg/m3 | mass density (333.15 K, x1 = 0.1984): 852.01 ± 2.1 kg/m3 | mass density (333.15 K, x1 = 0.3006): 862.85 ± 2 kg/m3 | mass density (333.15 K, x1 = 0.4024): 873.3 ± 1.9 kg/m3 | mass density (333.15 K, x1 = 0.5212): 885.09 ± 1.8 kg/m3 | mass density (333.15 K, x1 = 0.6022): 892.88 ± 1.8 kg/m3 | mass density (333.15 K, x1 = 0.7016): 902.2 ± 1.7 kg/m3 | mass density (333.15 K, x1 = 0.7995): 911.11 ± 1.6 kg/m3 | mass density (333.15 K, x1 = 0.8975): 919.81 ± 1.5 kg/m3 | mass density (333.15 K, x1 = 1): 928.69 ± 1.4 kg/m3 | viscosity (343.15 K, x1 = 0.1014): 0.358 ± 0.007 mPa·s | viscosity (343.15 K, x1 = 0.1984): 0.365 ± 0.007 mPa·s | viscosity (343.15 K, x1 = 0.3006): 0.373 ± 0.007 mPa·s | viscosity (343.15 K, x1 = 0.4024): 0.382 ± 0.007 mPa·s | viscosity (343.15 K, x1 = 0.5212): 0.391 ± 0.007 mPa·s | viscosity (343.15 K, x1 = 0.6022): 0.398 ± 0.007 mPa·s | viscosity (343.15 K, x1 = 0.7016): 0.407 ± 0.007 mPa·s | viscosity (343.15 K, x1 = 0.7995): 0.415 ± 0.007 mPa·s | viscosity (343.15 K, x1 = 0.8975): 0.425 ± 0.007 mPa·s | viscosity (343.15 K, x1 = 1): 0.435 ± 0.007 mPa·s | mass density (343.15 K, x1 = 0.1014): 831.46 ± 2.3 kg/m3 | mass density (343.15 K, x1 = 0.1984): 841.79 ± 2.2 kg/m3 | mass density (343.15 K, x1 = 0.3006): 852.32 ± 2.1 kg/m3 | mass density (343.15 K, x1 = 0.4024): 862.48 ± 2 kg/m3 | mass density (343.15 K, x1 = 0.5212): 873.94 ± 1.9 kg/m3 | mass density (343.15 K, x1 = 0.6022): 881.51 ± 1.9 kg/m3 | mass density (343.15 K, x1 = 0.7016): 890.57 ± 1.8 kg/m3 | mass density (343.15 K, x1 = 0.7995): 899.24 ± 1.7 kg/m3 | mass density (343.15 K, x1 = 0.8975): 907.69 ± 1.6 kg/m3 | mass density (343.15 K, x1 = 1): 916.33 ± 1.6 kg/m3 | viscosity (353.15 K, x1 = 0.1014): 0.318 ± 0.006 mPa·s | viscosity (353.15 K, x1 = 0.1984): 0.326 ± 0.006 mPa·s | viscosity (353.15 K, x1 = 0.3006): 0.334 ± 0.006 mPa·s | viscosity (353.15 K, x1 = 0.4024): 0.342 ± 0.007 mPa·s | viscosity (353.15 K, x1 = 0.5212): 0.352 ± 0.007 mPa·s | viscosity (353.15 K, x1 = 0.6022): 0.358 ± 0.007 mPa·s | viscosity (353.15 K, x1 = 0.7016): 0.367 ± 0.007 mPa·s | viscosity (353.15 K, x1 = 0.7995): 0.375 ± 0.007 mPa·s | viscosity (353.15 K, x1 = 0.8975): 0.384 ± 0.007 mPa·s | viscosity (353.15 K, x1 = 1): 0.393 ± 0.007 mPa·s | mass density (353.15 K, x1 = 0.1014): 821.53 ± 2.4 kg/m3 | mass density (353.15 K, x1 = 0.1984): 831.67 ± 2.3 kg/m3 | mass density (353.15 K, x1 = 0.3006): 842.02 ± 2.2 kg/m3 | mass density (353.15 K, x1 = 0.4024): 852.02 ± 2.1 kg/m3 | mass density (353.15 K, x1 = 0.5212): 863.29 ± 2 kg/m3 | mass density (353.15 K, x1 = 0.6022): 870.74 ± 2 kg/m3 | mass density (353.15 K, x1 = 0.7016): 879.66 ± 1.9 kg/m3 | mass density (353.15 K, x1 = 0.7995): 888.2 ± 1.8 kg/m3 | mass density (353.15 K, x1 = 0.8975): 896.52 ± 1.7 kg/m3 | mass density (353.15 K, x1 = 1): 905.02 ± 1.7 kg/m3 | viscosity (363.15 K, x1 = 0.1014): 0.293 ± 0.006 mPa·s | viscosity (363.15 K, x1 = 0.1984): 0.3 ± 0.006 mPa·s | viscosity (363.15 K, x1 = 0.3006): 0.306 ± 0.006 mPa·s | viscosity (363.15 K, x1 = 0.4024): 0.313 ± 0.006 mPa·s | viscosity (363.15 K, x1 = 0.5212): 0.322 ± 0.006 mPa·s | viscosity (363.15 K, x1 = 0.6022): 0.328 ± 0.006 mPa·s | viscosity (363.15 K, x1 = 0.7016): 0.336 ± 0.007 mPa·s | viscosity (363.15 K, x1 = 0.7995): 0.343 ± 0.007 mPa·s | viscosity (363.15 K, x1 = 0.8975): 0.351 ± 0.007 mPa·s | viscosity (363.15 K, x1 = 1): 0.358 ± 0.007 mPa·s | mass density (363.15 K, x1 = 0.1014): 808.79 ± 2.5 kg/m3 | mass density (363.15 K, x1 = 0.1984): 819.07 ± 2.5 kg/m3 | mass density (363.15 K, x1 = 0.3006): 829.57 ± 2.4 kg/m3 | mass density (363.15 K, x1 = 0.4024): 839.71 ± 2.3 kg/m3 | mass density (363.15 K, x1 = 0.5212): 851.16 ± 2.1 kg/m3 | mass density (363.15 K, x1 = 0.6022): 858.77 ± 2.1 kg/m3 | mass density (363.15 K, x1 = 0.7016): 867.85 ± 2 kg/m3 | mass density (363.15 K, x1 = 0.7995): 876.55 ± 1.9 kg/m3 | mass density (363.15 K, x1 = 0.8975): 885.04 ± 1.8 kg/m3 | mass density (363.15 K, x1 = 1): 893.71 ± 1.8 kg/m3
